In PubChem BioAssay (NCI):
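Assay format: 96-well plates, 48-hour exposure. At the TGI there is no net growth.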

What was measured:
Test in all cases: DTP human tumour cell line panel, 48 h
T-47D breast = system: T-47D breast
SK-OV-3 ovarian = system: SK-OV-3 ovarian
HT29 colon = system: HT29 colon
HL-60(TB) leukemia = system: HL-60(TB) leukemia
RXF 393 renal = system: RXF 393 renal
NCI-H460 lung = system: NCI-H460 lung
OVCAR-5 ovarian = system: OVCAR-5 ovarian
DU-145 prostate = system: DU-145 prostate
HS 578T breast = system: HS 578T breast
SNB-75 CNS = system: SNB-75 CNS
SW-620 colon = system: SW-620 colon
MCF7 breast = system: MCF7 breast
RPMI-8226 leukemia = system: RPMI-8226 leukemia
MDA-N = system: MDA-N
SNB-19 CNS = system: SNB-19 CNS
OVCAR-3 ovarian = system: OVCAR-3 ovarian
SR leukemia = system: SR leukemia
NCI-H522 lung = system: NCI-H522 lung
HOP-92 NSCLC = system: HOP-92 NSCLC
KM12 colon = system: KM12 colon
IGROV1 ovarian = system: IGROV1 ovarian
CAKI-1 renal = system: CAKI-1 renal
OVCAR-8 ovarian = system: OVCAR-8 ovarian
ACHN renal = system: ACHN renal
A498 renal = system: A498 renal
HOP-62 NSCLC = system: HOP-62 NSCLC
SF-268 CNS = system: SF-268 CNS
CCRF-CEM leukemia = system: CCRF-CEM leukemia
K-562 leukemia = system: K-562 leukemia
SK-MEL-2 melanoma = system: SK-MEL-2 melanoma
BT-549 breast = system: BT-549 breast
EKVX NSCLC = system: EKVX NSCLC
NCI-H23 lung = system: NCI-H23 lung
UO-31 renal = system: UO-31 renal
MOLT-4 leukemia = system: MOLT-4 leukemia
LOX IMVI melanoma = system: LOX IMVI melanoma
A549 NSCLC = system: A549 NSCLC
SK-MEL-28 melanoma = system: SK-MEL-28 melanoma
UACC-257 melanoma = system: UACC-257 melanoma
SF-539 CNS = system: SF-539 CNS
SF-295 CNS = system: SF-295 CNS
SN12C renal = system: SN12C renal
OVCAR-4 ovarian = system: OVCAR-4 ovarian
786-0 renal = system: 786-0 renal
MALME-3M melanoma = system: MALME-3M melanoma
SK-MEL-5 melanoma = system: SK-MEL-5 melanoma
MDA-MB-435 = system: MDA-MB-435
PC-3 prostate = system: PC-3 prostate
UACC-62 melanoma = system: UACC-62 melanoma
HCT-15 colon = system: HCT-15 colon
M14 melanoma = system: M14 melanoma
NCI-H226 lung = system: NCI-H226 lung
HCT-116 colon = system: HCT-116 colon
HCC-2998 colon = system: HCC-2998 colon
NCI/ADR-RES ovarian = system: NCI/ADR-RES ovarian
TK-10 renal = system: TK-10 renal
MDA-MB-231 breast = system: MDA-MB-231 breast
COLO 205 colon = system: COLO 205 colon
U251 CNS = system: U251 CNS

With `COc1ccc(/C=C2\C[C@H]3[C@@H]4CCC5=C/C(=N/O)CC[C@]5(C)[C@H]4CC[C@]3(C)\C2=N\O)cc1OC` the TGI (T-47D breast) was greater than 100 µM, the TGI (SK-OV-3 ovarian) was greater than 100 µM and the TGI (HT29 colon) was greater than 100 µM. The TGI (HL-60(TB) leukemia) was 76.8 µM, the TGI (RXF 393 renal) was greater than 100 µM and the TGI (NCI-H460 lung) was greater than 100 µM. For the same compound, the TGI (OVCAR-5 ovarian) was greater than 100 µM, the TGI (DU-145 prostate) was greater than 100 µM and the TGI (HS 578T breast) was greater than 100 µM. The TGI (SNB-75 CNS) was greater than 100 µM, the TGI (SW-620 colon) was greater than 100 µM and the TGI (MCF7 breast) was greater than 100 µM. The TGI (RPMI-8226 leukemia) was 60.3 µM, the TGI (MDA-N) was greater than 100 µM and the TGI (SNB-19 CNS) was greater than 100 µM. The TGI (OVCAR-3 ovarian) was greater than 100 µM, the TGI (SR leukemia) was greater than 100 µM and the TGI (NCI-H522 lung) was greater than 100 µM. The TGI (HOP-92 NSCLC) was greater than 100 µM, the TGI (KM12 colon) was greater than 100 µM and the TGI (IGROV1 ovarian) was greater than 100 µM. The TGI (CAKI-1 renal) was greater than 100 µM, the TGI (OVCAR-8 ovarian) was greater than 100 µM and the TGI (ACHN renal) was greater than 100 µM. The TGI (A498 renal) was greater than 100 µM, the TGI (HOP-62 NSCLC) was greater than 100 µM and the TGI (SF-268 CNS) was greater than 100 µM. The TGI (CCRF-CEM leukemia) was greater than 100 µM, the TGI (K-562 leukemia) was greater than 100 µM and the TGI (SK-MEL-2 melanoma) was 54.5 µM. It also gave a TGI (BT-549 breast) greater than 100 µM, a TGI (EKVX NSCLC) of 32 µM and a TGI (NCI-H23 lung) greater than 100 µM. It also gave a TGI (UO-31 renal) greater than 100 µM, a TGI (MOLT-4 leukemia) of 94.3 µM and a TGI (LOX IMVI melanoma) greater than 100 µM. It also gave a TGI (A549 NSCLC) greater than 100 µM, a TGI (SK-MEL-28 melanoma) greater than 100 µM and a TGI (UACC-257 melanoma) greater than 100 µM. It also gave a TGI (SF-539 CNS) greater than 100 µM, a TGI (SF-295 CNS) of 88.4 µM and a TGI (SN12C renal) greater than 100 µM. It also gave a TGI (OVCAR-4 ovarian) greater than 100 µM, a TGI (786-0 renal) greater than 100 µM and a TGI (MALME-3M melanoma) greater than 100 µM. It also gave a TGI (SK-MEL-5 melanoma) of 14.9 µM, a TGI (MDA-MB-435) greater than 100 µM and a TGI (PC-3 prostate) greater than 100 µM. For the same compound, the TGI (UACC-62 melanoma) was greater than 100 µM, the TGI (HCT-15 colon) was greater than 100 µM and the TGI (M14 melanoma) was greater than 100 µM. For the same compound, the TGI (NCI-H226 lung) was greater than 100 µM, the TGI (HCT-116 colon) was greater than 100 µM and the TGI (HCC-2998 colon) was greater than 100 µM. The TGI (NCI/ADR-RES ovarian) was greater than 100 µM.

`CCCC(=O)C1=C(O)C(Cc2c(O)c(C)c(O)c(C(=O)CCC)c2O)=C(O)C(C)(C)C1=O` showed a TGI (T-47D breast) greater than 50 µM, a TGI (SK-OV-3 ovarian) greater than 50 µM and a TGI (HT29 colon) greater than 50 µM. For the same compound, the TGI (RXF 393 renal) was greater than 50 µM, the TGI (NCI-H460 lung) was 43.1 µM and the TGI (OVCAR-5 ovarian) was 33.9 µM. For the same compound, the TGI (DU-145 prostate) was greater than 50 µM, the TGI (HS 578T breast) was greater than 50 µM and the TGI (SNB-75 CNS) was greater than 50 µM. For the same compound, the TGI (SW-620 colon) was greater than 50 µM, the TGI (MCF7 breast) was greater than 50 µM and the TGI (RPMI-8226 leukemia) was greater than 50 µM. The TGI (MDA-N) was greater than 50 µM, the TGI (SNB-19 CNS) was greater than 50 µM and the TGI (OVCAR-3 ovarian) was greater than 50 µM. The TGI (SR leukemia) was 40.3 µM, the TGI (HOP-92 NSCLC) was greater than 50 µM and the TGI (KM12 colon) was greater than 50 µM. The TGI (IGROV1 ovarian) was greater than 50 µM, the TGI (CAKI-1 renal) was greater than 50 µM and the TGI (OVCAR-8 ovarian) was greater than 50 µM. It also gave a TGI (ACHN renal) greater than 50 µM, a TGI (A498 renal) greater than 50 µM and a TGI (HOP-62 NSCLC) greater than 50 µM. The TGI (SF-268 CNS) was greater than 50 µM, the TGI (CCRF-CEM leukemia) was 20 µM and the TGI (K-562 leukemia) was 48 µM. It also gave a TGI (SK-MEL-2 melanoma) greater than 50 µM, a TGI (BT-549 breast) greater than 50 µM and a TGI (EKVX NSCLC) greater than 50 µM. It also gave a TGI (NCI-H23 lung) greater than 50 µM, a TGI (TK-10 renal) greater than 50 µM and a TGI (UO-31 renal) greater than 50 µM. The TGI (MOLT-4 leukemia) was 36.3 µM, the TGI (LOX IMVI melanoma) was greater than 50 µM and the TGI (A549 NSCLC) was greater than 50 µM. It also gave a TGI (MDA-MB-231 breast) greater than 50 µM, a TGI (SK-MEL-28 melanoma) greater than 50 µM and a TGI (UACC-257 melanoma) greater than 50 µM. It also gave a TGI (SF-295 CNS) greater than 50 µM, a TGI (SN12C renal) greater than 50 µM and a TGI (OVCAR-4 ovarian) greater than 50 µM. The TGI (786-0 renal) was greater than 50 µM, the TGI (COLO 205 colon) was greater than 50 µM and the TGI (SK-MEL-5 melanoma) was greater than 50 µM. It also gave a TGI (MDA-MB-435) greater than 50 µM, a TGI (PC-3 prostate) greater than 50 µM and a TGI (UACC-62 melanoma) greater than 50 µM. It also gave a TGI (HCT-15 colon) greater than 50 µM, a TGI (M14 melanoma) greater than 50 µM and a TGI (HCT-116 colon) greater than 50 µM. It also gave a TGI (U251 CNS) greater than 50 µM and a TGI (HCC-2998 colon) of 34.2 µM.
